Measured values: patent publication US20050060764A1, “Mouse model for bone metabolism” (priority 2003, published 2005)
Strand notation (5' to 3'): a small letter for the sugar, then the base; units joined by * are phosphorothioate-linked, units joined directly phosphodiester-linked; [ ] holds rarer units or linkages, { } end groups; capitals alone tell only the bases. e = 2'-O-(2-methoxyethyl) (MOE); [5mC] = 5-methylcytosine; d = 2'-deoxy (DNA)

Experiments:
RANK mRNA [1] = assay: RANK mRNA expression in mouse proximal tibia after antisense oligonucleotide treatment and PTH infusion: dose response and delivery method (Table 12); assay type: in vivo; conditions: then 24 h PTH
Experimental: In accordance with the present invention, ISIS 181071 was evaluated for its ability to inhibit RANK expression and PTH-induced serum calcium concentration increase following 18 days of oligonucleotide treatment.
Female Swiss-Webster mice (5-8 wks old), fed a low-calcium diet, were treated for 18 days with ISIS 181071 (SEQ ID NO: 356) at different doses and through different delivery methods. The dose of oligonucleotide was either 30 mg/kg, 20 mg/kg, 10 mg/kg, 3 mg/kg, or 0.1 mg/kg administered by daily subcutaneous injections for the first five days, followed by mini-pump infusion for the remaining 13 days, or the dose was 10 mg/kg or 30 mg/kg administered daily by subcutaneous injection for the entire 18 day period. After 18 days of treatment with oligonucleotides, the mice were infused with PTH by subcutaneously implanted mini-pumps at a dose of 1 ug/100 g/6 hr. A group of control mice received saline, calcitonin (400 ng) plus PTH (1 ug/100 g/6 hr) or PTH alone (1 ug/100 g/6 hr). After 24 hours of PTH infusion (total PTH delivery of 4ug/100 g), the mice were sacrificed and measurements were made of serum calcium with the Sigma Diagnostics Calcium Kit (Sigma-Aldrich) and RANK mRNA expression in proximal tibia (as described in other examples herein). The results are shown in Table 12 are normalized to PTH treatment alone and are the average of four mice per group.

RANK mRNA [2] = assay: RANK mRNA expression in mouse bone marrow after antisense oligonucleotide treatment and PTH infusion: time course (Table 13); assay type: in vivo; conditions: then 24 h PTH
Experimental: (§1) Female Swiss-Webster mice (5-8 wks old) were fed a low-calcium diet and received daily subcutaneous injections of 30 mg/kg of ISIS 181071 (SEQ ID NO: 356) for 2, 3, 5, 7, 10, 14, or 21 days. At the end of the oligonucleotide treatment period, mice were infused with PTH by subcutaneously implanted mini-pumps at a dose of 1 ug/100 g/6 hr. A group of control mice were dosed with either saline, PTH alone (1 ug/100 g/6 hr) or calcitonin (400 ug) plus PTH (1 ug/100 g/6 hr). Following 24 hours of PTH infusion (total PTH delivery of 4ug/100 g), the mice were sacrificed and measurements were made of serum calcium with the Sigma Diagnostics Calcium Kit (Sigma-Aldrich) and RANK mRNA expression in the proximal tibia (as described in other examples herein). Percent RANK mRNA inhibition is normalized to PTH alone treatment.

[3] = Serum calcium after RANK antisense oligonucleotide treatment and PTH infusion: time course (Table 13); assay type: in vivo, mouse; conditions: for Serum calcium concentration: then 24 h PTH
Experimental: In accordance with the present invention, ISIS 181071 was administered to mice for different time periods to evaluate its ability to inhibit RANK expression and PTH-induced serum calcium concentration increase as a function of oligonucleotide treatment time.
as §1

[4] = Short-term bone resorption model: serum calcium after PTH infusion (Table 6); assay type: in vivo, mouse; conditions: mice infused with PTH 1 ug/100 g/6 hr
Text: Parathyroidectomized rats are a well-established, short-term model of bone resorption and are useful in the investigation of antiresorptive agents. However, it is difficult to surgically remove only the parathyroid gland of rodents, and the inadvertent removal of the adjacent thyroid gland often has effects on thyroid hormone levels that introduce into the experiment an undesirable level of variability. Continuous infusion of parathyroid hormone (PTH) into intact, young (6-9 weeks old) mice reproduces the short-term bone resorption activity seen in parathyroidectomized rodents and is thus a useful, non-invasive model for the study of antiresorptive agents. The PTH infusion activates bone osteoclasts and causes them to degrade bone matrix, with a resulting rise in serum calcium. In accordance with the present invention, a short-term mouse model of bone resorption was developed and used to evaluate the effects of PTH infusion on serum calcium concentration and RANKL mRNA levels.
Female, Swiss-Webster mice (5-8 weeks old) were placed on a low calcium diet and implanted with mini-pumps delivering PTH continuously. The pumps were calibrated to deliver 1 ug PTH per 100 g bodyweight per 6 hour time period (1 ug/100 g/6 hr). With this procedure, over a 24 hour period, a total of 4 ug PTH per 100 g body weight is delivered (4 ug/100 g/24 hr). PTH infusion was conducted in these mice for 6, 12, 18 and 24 hours. At the end of each time period, the mice were sacrificed and measurements were made of the serum calcium, using the Sigma Diagnostics Calcium Kit (Sigma-Aldrich), and RANKL mRNA expression in the proximal tibia, as described in other examples herein. The data are expressed as percent increase relative to no PTH treatment.

TCCTCGAGAGGTCTCCTTGC (antisense eT*e[5mC]*e[5mC]*eT*e[5mC]*dG*dA*dG*dA*dG*dG*dT*d[5mC]*dT*d[5mC]*e[5mC]*eT*eT*eG*e[5mC]) [ISIS 181071, 2′-MOE gapmer antisense oligonucleotide targeted to mouse RANK]
RANK mRNA % inhibition (normalized to PTH) (RANK mRNA [1]; 0.1 mg/kg, injection 5 days then infusion 13 days): 19%
RANK mRNA % inhibition (normalized to PTH) (RANK mRNA [1]; 3 mg/kg, injection 5 days then infusion 13 days): 5%
RANK mRNA % inhibition (normalized to PTH) (RANK mRNA [1]; 10 mg/kg daily subcutaneous injection 18 days): 29%
RANK mRNA % inhibition (normalized to PTH) (RANK mRNA [1]; 10 mg/kg, injection 5 days then infusion 13 days): 23%
RANK mRNA % inhibition (normalized to PTH) (RANK mRNA [1]; 20 mg/kg, injection 5 days then infusion 13 days): 33%
RANK mRNA % inhibition (normalized to PTH) (RANK mRNA [1]; 30 mg/kg daily subcutaneous injection 18 days): 30%
RANK mRNA % inhibition (normalized to PTH) (RANK mRNA [1]; 30 mg/kg, injection 5 days then infusion 13 days): 32%
RANK mRNA % inhibition (normalized to PTH) Bone Marrow (RANK mRNA [2]; 30 mg/kg daily sc for 2 days): 0%
RANK mRNA % inhibition (normalized to PTH) Bone Marrow (RANK mRNA [2]; 30 mg/kg daily sc for 3 days): 35%
RANK mRNA % inhibition (normalized to PTH) Bone Marrow (RANK mRNA [2]; 30 mg/kg daily sc for 5 days): 32%
RANK mRNA % inhibition (normalized to PTH) Bone Marrow (RANK mRNA [2]; 30 mg/kg daily sc for 7 days): 44%
RANK mRNA % inhibition (normalized to PTH) Bone Marrow (RANK mRNA [2]; 30 mg/kg daily sc for 10 days): 18%
RANK mRNA % inhibition (normalized to PTH) Bone Marrow (RANK mRNA [2]; 30 mg/kg daily sc for 14 days): 36%
RANK mRNA % inhibition (normalized to PTH) Bone Marrow (RANK mRNA [2]; 30 mg/kg daily sc for 21 days): 8%
Serum calcium concentration ([3]; 30 mg/kg daily sc for 2 days): 20 mg/dL
Serum calcium concentration ([3]; 30 mg/kg daily sc for 3 days): 17 mg/dL
Serum calcium concentration ([3]; 30 mg/kg daily sc for 5 days): 16 mg/dL
Serum calcium concentration ([3]; 30 mg/kg daily sc for 7 days): 16 mg/dL
Serum calcium concentration ([3]; 30 mg/kg daily sc for 10 days): 18 mg/dL
Serum calcium concentration ([3]; 30 mg/kg daily sc for 14 days): 15 mg/dL
Serum calcium concentration ([3]; 30 mg/kg daily sc for 21 days): 15 mg/dL
PTH-induced increase in serum calcium concentration ([3]; mice, 30 mg/kg daily s.c. for 2, 3, 5, 7, 10, 14, or 21 days, 24 hours PTH infusion): lessens the PTH-induced increase in serum calcium concentration

B1: parathyroid hormone (peptide, UniProt P01270 32-115, looked up)
Parathyroid hormone: SVSEIQLMHNLGKHLNSMERVEWLRKKLQDVHNFVALGAPLAPRDAGSQRPRKKEDNVLVESHEKSLGEADKADVNVLTKAKSQ
notes: parathyroid hormone infused to induce bone resorption in the mouse model
Serum Calcium Concentration % control ([4]; 6 hours): 109 % control
Serum Calcium Concentration % control ([4]; 12 hours): 115 % control
Serum Calcium Concentration % control ([4]; 18 hours): 125 % control
Serum Calcium Concentration % control ([4]; 24 hours (4 ug/100 g)): 230 % control
